Source: patent publication US10131647B2, “Chromene derivatives substituted by alkoxide as inhibitors of the TCR-Nck interaction” (ARTAX BIOPHARMA INC., priority 2013, dated 2018)
Like-named read-outs stand apart in the source and are kept apart here.

Key:
[1] = tested on: chronic EAE induced by MOG35-55 peptide; experiment: In vivo test on model of chronic EAE (Experimental Autoimmune Encephalomyelitis); set-up: species or system C57BL/6 female mice
[2] = Pharmacokinetics after intravenous bolus and oral gavage; assay type: in vivo, Swiss albino mice; conditions: for F: 50 mg/kg vs IV 5 mg/kg
[3] = oral, first 10 days from immunization, versus placebo group
[4] = mouse, in vivo, IV (5 mg/kg), Swiss albino mice, mean
[5] = mouse, in vivo, PO (50 mg/kg), Swiss albino mice, mean
[6] = IV, 5 mg/kg, Swiss albino mice, mean
[7] = PO, 50 mg/kg, Swiss albino mice, mean

For `Fc1ccc(C2=C(CN3CCCC3)COc3ccc(OCC4CC4)cc32)cc1` [AX-104, 1-((6-(cyclopropylmethoxy)-4-(4-fluorophenyl)-2H-chromen-3-yl)methyl)pyrrolidine], the “clinical score of the disease (scale 0-6), FIG. 2” value [1, 3] was “reduced score when compared to the placebo group”, the “weight of the animals (weight loss), FIG. 3” value [1, 3] was “weight loss significantly reduced” and the “impact of the symptoms associated to the model” value ([1]; overall results of the EAE study) was “significantly reducing the impact of the symptoms”. It also gave an F ([2]; PO, Swiss albino mice) of 24, a bioavailability ([2]; Swiss albino, mouse, in vivo, 50 mg/kg, oral gavage vs intravenous bolus, text says rats, n=3, read-out: total bioavailability after oral administration) of 24% and an AUC(0-inf) [2, 4] of 750 ng·h/mL. It also gave an AUC(0-t) [2, 4] of 724 ng·h/mL, a clearance [2, 4] of 111 mL/min/kg and a half-life [2, 4] of 8.45 h. It also gave a Cmax ([2]; mouse, in vivo, IV (5 mg/kg), Swiss albino mice, mean, read-out: Cmax) of 1280 ng/mL, a Vd ([2]; mouse, in vivo, IV (5 mg/kg), Swiss albino mice, mean, read-out: Vss) of 20.6 L/kg and an AUC(0-inf) [2, 5] of 1790 ng·h/mL. For the same compound, the AUC(0-t) [2, 5] was 1760 ng·h/mL, the Cmax ([2]; mouse, in vivo, PO (50 mg/kg), Swiss albino mice, mean, read-out: Cmax) was 930 ng/mL and the Tmax ([2]; mouse, in vivo, PO (50 mg/kg), Swiss albino mice, mean, read-out: Tmax) was 0.25 h.

Work on `COc1ccc2c(c1)C(c1ccc(F)cc1)=C(CN1CCCC1)CO2` [ECRA-24] yielded an AUCint [2, 6] of 840.27 ng·h/mL, an AUClast [2, 6] of 838.43 ng·h/mL and a CL [2, 6] of 99.17 mL/min/kg. For the same compound, the Cmax [2, 6] was 1168.89 ng/mL, the T1/2 [2, 6] was 3.36 h and the Vss [2, 6] was 11.37 L/kg. The F ([2]; PO, Swiss albino mice) was 4, the AUCint [2, 7] was 299.69 ng·h/mL and the AUClast [2, 7] was 297.03 ng·h/mL. For the same compound, the Cmax [2, 7] was 171.56 ng/mL, the T1/2 [2, 7] was 4.93 h and the Tmax [2, 7] was 0.25 h.
